These results are taken from patent US7919457B2, “Thrombin peptide derivative dimers” (Orthologic Corp., priority 2002, dated 2011).

For one test, the system named is thrombin receptors. Nature of the test: Peptide competition for [125I]-alpha-thrombin binding to ME cells. Particulars: for fold higher concentration required for 30% inhibition than p508-530: [125I]-alpha-thrombin binding; for Conc. at Maximal % Inhibition / Concentration Required for 30% Inhibition / Maximal % Inhibition: [125I]-alpha-thrombin binding to ME cells; for Maximal % Inhibition: at the conc. printed below the value. From the text:
Thrombin peptide derivatives are believed to activate cells by binding to a high-affinity cell-surface thrombin receptor known as the non-proteolytically-activated thrombin receptor (hereinafter “NPAR”) (R. Horvat, et. al., J. Cell Sci. 108, 1155-1164, 1995). Compounds which stimulate NPAR are said to be thrombin receptor agonists. NPAR activation can be assayed based on the ability of molecules to stimulate cell proliferation when added to fibroblasts in the presence of submitogenic concentrations of thrombin or molecules that activate protein kinase C or compete with ^125I-thrombin for high affinity binding to thrombin receptors, as disclosed in U.S. Pat. Nos. 5,352,664 and 5,500,412 and in Glenn et al., J. Peptide Research 1:65 (1988).
To further identify regions of thrombin involved in high-affinity binding and generation of mitogenic signals, two peptides representing specific domains within p508-530 were tested. The first peptide represented residues 519 to 530 of the B-chain region of human prothrombin, a region of thrombin that is highly conserved among serine proteases. The second peptide represented residues 517 to 520 of prothrombin, a region of thrombin homologous to the fibronectin cell binding domain.
Both of these peptides were able to compete for 30% to 50% of the binding of [^125I]-alpha-thrombin to ME cells, but both required higher concentrations than was required with the initial peptide p508-530 (Table 1). For example, 30% inhibition of [^125I]-alpha-thrombin binding required 33- to 50-fold higher concentrations of p519-530 and p517-520 than p508-530, respectively. Thus, both of these peptides appear to interact with thrombin receptors, but at a lower affinity than p508-530. Because p517-520 is homologous to the fibronectin cell binding domain, a peptide having the sequence Arg-Gly-Ala-Ser (SEQ ID NO:13; the sequence of the fibronectin specific peptide) was also tested for its ability to compete for [^125I]-alpha-thrombin binding. […] Thus, the receptor for alpha-thrombin is not the same membrane protein that specifically interacts with fibronectin and causes the apparent growth promoting action of fibronectin.

In the next test the test system is NIL cells. Particulars: increasing concentrations, quiescent NIL cells, 2 and 4 nM alpha-thrombin; FIG. 6 of U.S. Pat. No. 5,500,412; cited from earlier work.

For the substance “Arg-Gly-Ala-Ser (RGAS; Fibronectin fragment)”, the “competition with [125I]-alpha-thrombin for binding” value in the test on thrombin receptors (at a concentration of 1.3 μM) is given as “did not compete”.
As for “DACEGDSGGPFV (Thrombin peptide derivative) [p519-530]”, in the test on NIL cells, the “effect on DNA synthesis” value is on record as “enhanced DNA synthesis over a range of concentrations”. Also, in the test on thrombin receptors, the “fold higher concentration required for 30% inhibition than p508-530” value stood at 33 fold, the “Conc. at Maximal % Inhibition” value is reported as “(800 nM)”, the “Concentration Required for 30% Inhibition” value is 200 nM and the “Maximal % Inhibition” value is listed as 51%.
In the case of “RGDA (Thrombin peptide fragment) [p517-520]”, the “effect on DNA synthesis” value in the test on NIL cells is given as “inhibited DNA synthesis”. Besides, in the test with thrombin receptors, the “fold higher concentration required for 30% inhibition than p508-530” value was 50 fold, the “Conc. at Maximal % Inhibition” value is reported as “(2.7 μM)”, the “Concentration Required for 30% Inhibition” value came to 300 nM and the “Maximal % Inhibition” value was 50%.
